Results published in paper PMC9127750, “Structure-based design of CDC42 effector interaction inhibitors for the treatment of cancer” (Cell reports, 2022).
Several values for one entry are separate records, joined by “and”; a condition that tells them apart may be missing. Identical values can stand only once.

Test system: WM3248 melanoma cells, 486 antibodies
Assay: Reverse phase protein arrays (RPPA)
Type: cell-based, Human
Conditions: normalized to 0
Source text: Pellets were snap frozen in liquid nitrogen and shipped to MD Anderson Cancer Center core RPPA facility for RPPA analysis (Table S5). Three biological replicates for each sample were generated.
Nomenclatures on the RPPA heatmaps: name_of_antibody.species_of_antibody.status_of_antibody. V - antibody validated; C - validation of antibody in progress; Q - antibody nonspecific; E – under evaluation; antibodies raised in M - mouse, G - goat, R - rabbit, or T - rat.

## CN(C)c1cccc(Nc2cc(-c3ccccc3)nc(C3CCNCC3)n2)c1 [ARN22089, N1,N1-dimethyl-N3-(6-phenyl-2-(piperidin-4-yl)pyrimidin-4-yl)benzene-1,3-diamine]
5, average
  EMA.M.C Norm_5 Average: 0.850
  ENY2.M.C Norm_5 Average: 0.965
  ER.a.R.V Norm_5 Average: 1.001
  ERCC1.R.C Norm_5 Average: 0.948
  ERCC5.R.C Norm_5 Average: 1.084
  ERRalpha.R.V Norm_5 Average: 0.950
  EVI1.R.V Norm_5 Average: 0.922
  Elk1_pS383.R.C Norm_5 Average: 1.032
  Enolase.1.R.V Norm_5 Average: 1.052
  Enolase.2.R.V Norm_5 Average: 0.966
  EphA2.R.V Norm_5 Average: 0.884
  EphA2_pS897.R.C Norm_5 Average: 0.843
  EphA2_pY588.R.C Norm_5 Average: 0.929
  Erk5.R.V Norm_5 Average: 1.026
  FABP5.R.C Norm_5 Average: 0.959
  FAK.R.C Norm_5 Average: 0.977
  FAK_pY397.R.V Norm_5 Average: 0.931
  FANCD2.R.V Norm_5 Average: 0.930
  FASN.R.V Norm_5 Average: 1.111
  FGF.basic.R.C Norm_5 Average: 0.987
  FN14.R.C Norm_5 Average: 1.118
  FOXM1.R.V Norm_5 Average: 0.915
  FOXO3.R.V Norm_5 Average: 1.012
  FRS2.alpha_pY196.R.V Norm_5 Average: 0.996
  FTO.R.V Norm_5 Average: 1.020
  Fibronectin.R.V Norm_5 Average: 1.193
  FoxO3a_pS318_S321.R.C Norm_5 Average: 0.972
  G6PD.R.V Norm_5 Average: 0.950
  GATA3.M.V Norm_5 Average: 1.077
  GATA6.R.V Norm_5 Average: 0.971
  GCLM.R.V Norm_5 Average: 0.967
  GCN5L2.R.V Norm_5 Average: 1.021
  GGPS1.M.V Norm_5 Average: 0.977
  GRB2.R.V Norm_5 Average: 1.022
  GRB7.R.V Norm_5 Average: 0.976
  GSK.3a.b.M.V Norm_5 Average: 0.937
  GSK.3a.b_pS21_S9.R.V Norm_5 Average: 1.111
  Gab2.R.V Norm_5 Average: 1.100
  Gli1.R.C Norm_5 Average: 0.999
  Gli3.R.C Norm_5 Average: 1.056
  Glucocorticoid.Receptor.R.V Norm_5 Average: 1.053
  Glutamate.D1.2.R.V Norm_5 Average: 0.990
  Grp75.R.C Norm_5 Average: 1.021
  Gys.R.V Norm_5 Average: 0.987
  Gys_pS641.R.V Norm_5 Average: 0.978
  H2AX_pS139.R.C Norm_5 Average: 1.026
  H2AX_pS140.M.C Norm_5 Average: 0.967
  HER2.M.V Norm_5 Average: 0.971
  HER2_pY1248.R.V Norm_5 Average: 1.023
  HER3.R.V Norm_5 Average: 0.924
  HER3_pY1289.R.C Norm_5 Average: 1.060
  HES1.R.V Norm_5 Average: 1.168
  eEF2.R.C Norm_5 Average: 1.217
  eEF2K.R.V Norm_5 Average: 1.024
  eIF4E.R.V Norm_5 Average: 1.028
  eIF4E_pS209.R.V Norm_5 Average: 0.945
5, replicates 1-3
  DNMT1.R.V Norm_5: 0.988 and 0.998 and 1.098
  DRP1.R.V Norm_5: 0.998 and 1.001
  DUSP4.R.V Norm_5: 1.082 and 1.118 and 1.119
  DUSP6.R.C Norm_5: 1.285 and 1.005 and 1.269
  DYRK1B.R.C Norm_5: 0.880 and 0.877 and 1.004
  Dvl3.R.V Norm_5: 0.981 and 1.018 and 0.968
  E2F1.R.V Norm_5: 0.990 and 0.958 and 0.964
  E.Cadherin.R.V Norm_5: 0.812 and 0.783 and 0.958
  EGFR.R.V Norm_5: 0.998 and 1.139 and 0.952
  EGFR_pY1068.R.C Norm_5: 0.901 and 0.903 and 1.000
  EGFR_pY1173.R.V Norm_5: 1.024 and 1.026 and 1.016
  EMA.M.C Norm_5: 0.673 and 0.895 and 0.983
  ENY2.M.C Norm_5: 0.935 and 1.052 and 0.908
  ER.a.R.V Norm_5: 0.980 and 1.004 and 1.018
  ER.a_pS118.R.V Norm_5: 1.247
  ERCC1.R.C Norm_5: 0.895 and 0.962 and 0.988
  ERCC5.R.C Norm_5: 1.145
  ERRalpha.R.V Norm_5: 0.932 and 0.933 and 0.985
  EVI1.R.V Norm_5: 0.871 and 0.956 and 0.940
  Elk1_pS383.R.C Norm_5: 1.029
  Enolase.1.R.V Norm_5: 1.006 and 1.195 and 0.954
  Enolase.2.R.V Norm_5: 0.936 and 1.012
  EphA2.R.V Norm_5: 0.843 and 0.933 and 0.875
  EphA2_pS897.R.C Norm_5: 0.767 and 0.950 and 0.814
  EphA2_pY588.R.C Norm_5: 0.881 and 0.946 and 0.960
  Erk5.R.V Norm_5: 0.987 and 1.054
  Ets.1.R.V Norm_5: 1.139 and 1.226 and 0.851
  FABP5.R.C Norm_5: 1.017 and 1.210 and 0.650
  FAK.R.C Norm_5: 0.898 and 1.113 and 0.922
  FAK_pY397.R.V Norm_5: 0.881 and 0.907 and 1.006
  FANCD2.R.V Norm_5: 0.905 and 0.913 and 0.972
  FASN.R.V Norm_5: 1.237 and 1.011 and 1.085
  FGF.basic.R.C Norm_5: 0.849
  FN14.R.C Norm_5: 1.117 and 1.165
  FOXM1.R.V Norm_5: 0.776 and 0.924 and 1.046
  FOXO3.R.V Norm_5: 0.964 and 1.056 and 1.017
  FRS2.alpha_pY196.R.V Norm_5: 0.883 and 1.011
  FTO.R.V Norm_5: 1.133 and 0.883
  Fibronectin.R.V Norm_5: 1.256 and 1.230
  FoxO3a_pS318_S321.R.C Norm_5: 0.972 and 1.006
  G6PD.R.V Norm_5: 0.921 and 1.016 and 0.913
  GATA3.M.V Norm_5: 1.233 and 0.961
  GATA6.R.V Norm_5: 0.980 and 0.952 and 0.979
  GCLC.R.C Norm_5: 1.128 and 0.940
  GCLM.R.V Norm_5: 0.953 and 1.003
  GCN5L2.R.V Norm_5: 0.975 and 1.052
  GGPS1.M.V Norm_5: 0.942
  GRB2.R.V Norm_5: 0.966 and 1.023 and 1.076
  GRB7.R.V Norm_5: 1.030 and 0.936 and 0.962
  GSK.3B.R.C Norm_5: 0.980 and 1.031 and 1.125
  GSK.3a.b.M.V Norm_5: 1.010 and 0.971 and 0.830
  GSK.3a.b_pS21_S9.R.V Norm_5: 1.277 and 1.230
  Gab2.R.V Norm_5: 1.236 and 1.059 and 1.006
  Gli1.R.C Norm_5: 0.936 and 0.961 and 1.099
  Gli3.R.C Norm_5: 1.128 and 1.124 and 0.916
  Glucocorticoid.Receptor.R.V Norm_5: 1.063 and 1.061 and 1.034
  Glutamate.D1.2.R.V Norm_5: 1.128 and 0.932
  Glutaminase.R.C Norm_5: 1.249 and 0.891
  Granzyme.B.R.V Norm_5: 1.216 and 0.936
  Grp75.R.C Norm_5: 0.988 and 1.124 and 0.950
  Gys.R.V Norm_5: 0.964 and 0.981 and 1.016
  Gys_pS641.R.V Norm_5: 1.014 and 0.854
  H2AX_pS139.R.C Norm_5: 1.023 and 1.013
  H2AX_pS140.M.C Norm_5: 0.966 and 1.110 and 0.827
  HER2.M.V Norm_5: 0.993 and 0.940 and 0.980
  HER2_pY1248.R.V Norm_5: 0.876 and 1.016
  HER3.R.V Norm_5: 0.898 and 0.946 and 0.928
  HER3_pY1289.R.C Norm_5: 1.034 and 1.212 and 0.933
  HES1.R.V Norm_5: 1.299 and 1.047 and 1.158
  Heregulin.R.V Norm_5: 1.014 and 1.131 and 1.059
  eEF2.R.C Norm_5: 1.519 and 1.622 and 0.509
  eEF2K.R.V Norm_5: 1.078 and 1.168
  eIF4E.R.V Norm_5: 0.986 and 1.010
  eIF4E_pS209.R.V Norm_5: 0.988 and 0.981
  eIF4G.R.C Norm_5: 1.060 and 1.058 and 1.164
10, average
  DNMT1.R.V Norm_10 Average: 1.056
  DRP1.R.V Norm_10 Average: 0.998
  DUSP4.R.V Norm_10 Average: 0.891
  DUSP6.R.C Norm_10 Average: 1.050
  DYRK1B.R.C Norm_10 Average: 0.948
  Dvl3.R.V Norm_10 Average: 0.962
  E2F1.R.V Norm_10 Average: 1.083
  E.Cadherin.R.V Norm_10 Average: 0.939
  EGFR.R.V Norm_10 Average: 0.975
  EGFR_pY1068.R.C Norm_10 Average: 0.957
  EMA.M.C Norm_10 Average: 0.953
  ER.a.R.V Norm_10 Average: 0.921
  ERCC5.R.C Norm_10 Average: 0.962
  ERRalpha.R.V Norm_10 Average: 1.014
  EVI1.R.V Norm_10 Average: 1.011
  Elk1_pS383.R.C Norm_10 Average: 0.998
  Enolase.1.R.V Norm_10 Average: 1.160
  EphA2.R.V Norm_10 Average: 0.919
  EphA2_pS897.R.C Norm_10 Average: 0.866
  EphA2_pY588.R.C Norm_10 Average: 0.941
  Erk5.R.V Norm_10 Average: 0.877
  Ets.1.R.V Norm_10 Average: 1.306
  FABP5.R.C Norm_10 Average: 1.237
  FAK.R.C Norm_10 Average: 0.954
  FANCD2.R.V Norm_10 Average: 0.930
  FASN.R.V Norm_10 Average: 0.962
  FGF.basic.R.C Norm_10 Average: 0.946
  FOXM1.R.V Norm_10 Average: 0.929
  FOXO3.R.V Norm_10 Average: 1.081
  FRS2.alpha_pY196.R.V Norm_10 Average: 1.373
  FTO.R.V Norm_10 Average: 1.099
  Fibronectin.R.V Norm_10 Average: 1.015
